Legend:
[1] = test system: bedstraw; test: Test B pre/postemergence bedstraw; assay type: in vivo, Galium aparine
Procedure, shortened: (§1)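 Response is a visual 0-to-10 score relative to untreated plants, where 0 means no effect and 10 means complete control, taken twelve to sixteen days after application. Treatments went onto soil at planting and onto foliage of 1- to 4-leaf plants, using a surfactant-containing non-phytotoxic solvent.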

[2] = test system: blackgrass; test: Test B pre/postemergence blackgrass; assay type: in vivo, Alopecurus myosuroides
Procedure, shortened: as §1

[3] = test system: surinam grass; test: Test B pre/postemergence surinam grass; assay type: in vivo, Brachiaria decumbens
Procedure, shortened: as §1

[4] = test system: cocklebur; test: Test B pre/postemergence cocklebur; assay type: in vivo, Xanthium strumarium
Procedure, shortened: as §1

[5] = test system: corn; test: Test B pre/postemergence corn; assay type: in vivo, Zea mays
Procedure, shortened: as §1

[6] = test system: giant foxtail; test: Test B pre/postemergence giant foxtail; assay type: in vivo, Setaria faberii
Procedure, shortened: as §1

[7] = test system: morningglory; test: Test B pre/postemergence morningglory; assay type: in vivo, Ipomoea hederacea
Procedure, shortened: as §1

[8] = test system: pigweed; test: Test B pre/postemergence pigweed; assay type: in vivo, Amaranthus retroflexus
Procedure, shortened: as §1

[9] = test system: rape; test: Test B pre/postemergence rape; assay type: in vivo, Brassica napus
Procedure, shortened: as §1

[10] = test system: soybean; test: Test B pre/postemergence soybean; assay type: in vivo, Glycine max
Procedure, shortened: as §1

[11] = test system: sugar beet; test: Test B pre/postemergence sugar beet; assay type: in vivo, Beta vulgaris
Procedure, shortened: as §1

[12] = test system: velvetleaf; test: Test B pre/postemergence velvetleaf; assay type: in vivo, Abutilon theophrasti
Procedure, shortened: as §1

[13] = test system: wheat; test: Test B pre/postemergence wheat; assay type: in vivo, Triticum aestivum
Procedure, shortened: as §1

[14] = test system: wild oat; test: Test B pre/postemergence wild oat; assay type: in vivo, Avena fatua
Procedure, shortened: as §1

[15] = test system: rice; test: Test B flood test rice; assay type: in vivo, Oryza sativa
Procedure, shortened: (§2)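 Each value is a visual injury score relative to controls, with 10 meaning complete control and 0 no effect. Evaluation took place twelve to sixteen days after the 2-leaf-stage plants were treated and kept in the greenhouse.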

[16] = test system: smallflower flatsedge; test: Test B flood test smallflower flatsedge; assay type: in vivo, Cyperus difformis
Procedure, shortened: as §2

[17] = Postemergence, Rate 250 g/ha, scale 0 to 10, 0 no effect, 10 complete control
[18] = Postemergence, Rate 1000 g/ha, scale 0 to 10 (0 no effect, 10 complete control)
[19] = Preemergence, Rate 125 g/ha, scale 0 to 10 (0 no effect, 10 complete control)
[20] = Preemergence, Rate 250 g/ha, scale of 0 to 10 where 0 is no effect and 10 is complete control
[21] = Preemergence, Rate 500 g/ha, scale 0 (no effect) to 10 (complete control)
[22] = Rate 125 g/ha, Postemergence, scale 0 to 10, 0 no effect, 10 complete control
[23] = Rate 500 g/ha, Postemergence, 0 to 10 scale (0 no effect, 10 complete control)
[24] = Rate 1000 g/ha, Preemergence, scale 0 to 10 (0 no effect, 10 complete control)
[25] = Rate 125 g/ha, Postemergence section (flood test species), scale 0 to 10, 0 no effect, 10 complete control
[26] = flood test, listed under Postemergence, Rate 250 g/ha, scale 0 to 10, 0 no effect, 10 complete control

## CCN(CC)C(=O)n1oc(=O)n(-c2ccc(OC)cc2)c1=O [Compound 1]
[1]; [17]
  Bedstraw plant response rating: 0
[1]; [18]
  Bedstraw plant response rating: 0
[1]; [19]
  Plant response rating, Bedstraw: 0
[1]; [20]
  Plant response rating, Bedstraw: 0
[1]; [21]
  Bedstraw plant response rating: 0
[1]; [22]
  Bedstraw plant response rating: 0
[1]; [23]
  Bedstraw plant response rating: 0
[1]; [24]
  Plant response rating, Bedstraw: 0
[2]; [17]
  Blackgrass plant response rating: 0
[2]; [18]
  Blackgrass plant response rating: 8
[2]; [19]
  Plant response rating, Blackgrass: 0
[2]; [20]
  Plant response rating, Blackgrass: 0
[2]; [21]
  Blackgrass plant response rating: 2
[2]; [22]
  Blackgrass plant response rating: 0
[2]; [23]
  Blackgrass plant response rating: 2
[2]; [24]
  Plant response rating, Blackgrass: 4
[3]; [17]
  B. signalgrass plant response rating: 7
[3]; [18]
  B. signalgrass plant response rating: 6
[3]; [19]
  Plant response rating, B. signalgrass: 0
[3]; [20]
  Plant response rating, B. signalgrass: 0
[3]; [21]
  B. signalgrass plant response rating: 6
[3]; [22]
  B. signalgrass plant response rating: 0
[3]; [23]
  B. signalgrass plant response rating: 7
[3]; [24]
  Plant response rating, B. signalgrass: 8
[4]; [17]
  Cocklebur plant response rating: 0
[4]; [18]
  Cocklebur plant response rating: 0
[4]; [19]
  Plant response rating, Cocklebur: 0
[4]; [20]
  Plant response rating, Cocklebur: 0
[4]; [21]
  Cocklebur plant response rating: 0
[4]; [22]
  Cocklebur plant response rating: 0
[4]; [23]
  Cocklebur plant response rating: 0
[5]; [17]
  Corn plant response rating: 0
[5]; [18]
  Corn plant response rating: 0
[5]; [19]
  Plant response rating, Corn: 0
[5]; [20]
  Plant response rating, Corn: 0
[5]; [21]
  Corn plant response rating: 5
[5]; [22]
  Corn plant response rating: 0
[5]; [23]
  Corn plant response rating: 0
[5]; [24]
  Plant response rating, Corn: 7
[6]; [17]
  Giant foxtail plant response rating: 2
[6]; [18]
  Giant foxtail plant response rating: 8
[6]; [19]
  Plant response rating, Giant foxtail: 7
[6]; [20]
  Plant response rating, Giant foxtail: 8
[6]; [21]
  Giant foxtail plant response rating: 9
[6]; [22]
  Giant foxtail plant response rating: 0
[6]; [23]
  Giant foxtail plant response rating: 8
[6]; [24]
  Plant response rating, Giant foxtail: 9
[7]; [17]
  Morningglory plant response rating: 0
[7]; [18]
  Morningglory plant response rating: 0
[7]; [19]
  Plant response rating, Morningglory: 0
[7]; [20]
  Plant response rating, Morningglory: 0
[7]; [21]
  Morningglory plant response rating: 0
[7]; [22]
  Morningglory plant response rating: 0
[7]; [23]
  Morningglory plant response rating: 0
[7]; [24]
  Plant response rating, Morningglory: 0
[8]; [17]
  Redroot pigweed plant response rating: 4
[8]; [18]
  Redroot pigweed plant response rating: 9
[8]; [19]
  Plant response rating, Redroot pigweed: 0
[8]; [20]
  Plant response rating, Redroot pigweed: 0
[8]; [21]
  Redroot pigweed plant response rating: 2
[8]; [22]
  Redroot pigweed plant response rating: 2
[8]; [23]
  Redroot pigweed plant response rating: 8
[8]; [24]
  Plant response rating, Redroot pigweed: 2
[9]; [17]
  Rape plant response rating: 0
[9]; [18]
  Rape plant response rating: 4
[9]; [19]
  Plant response rating, Rape: 0
[9]; [20]
  Plant response rating, Rape: 0
[9]; [21]
  Rape plant response rating: 0
[9]; [22]
  Rape plant response rating: 0
[9]; [23]
  Rape plant response rating: 2
[9]; [24]
  Plant response rating, Rape: 0
[10]; [17]
  Soybean plant response rating: 0
[10]; [18]
  Soybean plant response rating: 2
[10]; [19]
  Plant response rating, Soybean: 0
[10]; [20]
  Plant response rating, Soybean: 0
[10]; [21]
  Soybean plant response rating: 0
[10]; [22]
  Soybean plant response rating: 0
[10]; [24]
  Plant response rating, Soybean: 0
[11]; [17]
  Sugarbeets plant response rating: 0
[11]; [18]
  Sugarbeets plant response rating: 5
[11]; [19]
  Plant response rating, Sugarbeets: 0
[11]; [20]
  Plant response rating, Sugarbeets: 0
[11]; [21]
  Sugarbeets plant response rating: 0
[11]; [22]
  Sugarbeets plant response rating: 0
[11]; [24]
  Plant response rating, Sugarbeets: 0
[12]; [17]
  Velvetleaf plant response rating: 0
[12]; [18]
  Velvetleaf plant response rating: 0
[12]; [19]
  Plant response rating, Velvetleaf: 0
[12]; [20]
  Plant response rating, Velvetleaf: 0
[12]; [21]
  Velvetleaf plant response rating: 0
[12]; [22]
  Velvetleaf plant response rating: 0
[12]; [24]
  Plant response rating, Velvetleaf: 3
[13]; [17]
  Wheat plant response rating: 0
[13]; [18]
  Wheat plant response rating: 0
[13]; [19]
  Plant response rating, Wheat: 0
[13]; [20]
  Plant response rating, Wheat: 0
[13]; [21]
  Wheat plant response rating: 0
[13]; [22]
  Wheat plant response rating: 0
[13]; [24]
  Plant response rating, Wheat: 0
[14]; [17]
  Wild oats plant response rating: 0
[14]; [18]
  Wild oats plant response rating: 0
[14]; [19]
  Plant response rating, Wild oats: 0
[14]; [20]
  Plant response rating, Wild oats: 0
[14]; [21]
  Wild oats plant response rating: 0
[14]; [22]
  Wild oats plant response rating: 0
[14]; [24]
  Plant response rating, Wild oats: 2
[15]; [18]
  Rice plant response rating: 0
[15]; [25]
  Rice plant response rating: 0
[15]; Rate 500 g/ha, Postemergence section of Table B, 0 to 10 scale (0 no effect, 10 complete control)
  Rice plant response rating: 0
[15]; [26]
  Rice plant response rating: 0
[16]; [18]
  S. Flatsedge plant response rating: 0
[16]; [25]
  S. Flatsedge plant response rating: 0
[16]; [26]
  S. Flatsedge plant response rating: 0

— patent US6737383B1, “Herbicidal oxadiazolidines” (priority 1999, dated 2004)
